The results in this text go back to patent US8658620B2, “Pharmaceutical composition, use of 2-iminopyrrolidine derivative for production of pharmaceutical composition, and kit for treatment or amelioration of heart diseases” (Eisai R&D Management Co., Ltd., priority 2008, dated 2014).

The subject of the experiment is guinea pig photosensitization-induced thrombus model. The experiment in a line: guinea pig photosensitization-induced thrombus model (rose bengal / green light, femoral artery blood flow time). The class given is in vivo. The following applies: male Hartley guinea pigs, oral, about 115-120 min after administration, vehicle control 6.72 minutes. The procedure:
At least one compound selected from the group consisting of the formulas (I) to (VII) or a pharmacologically acceptable salt thereof and at least one other compound (B) selected from group B are administered orally, single or in mixture, to male Hartley guinea pigs. As a vehicle, 0.5% methylcellulose solution or an aqueous solution containing dimethylsulfoxide and Tween 20 is used. (These compounds may be administered repeatedly.)
At a specific time after the oral administration, guinea pigs are anesthetized by intraperitoneal administration of sodium pentobarbital. Under anesthesia, the cervical vein is exposed and a polyethylene tube is cannulated thereinto for administering rose bengal. The femoral artery is exposed and fitted with a probe for blood flow measurement. A site upstream of the probe is irradiated with green light (wavelength 540 nm, 500,000 lux). […] Time to complete cessation of blood flow is measured.
A hydrobromide of a compound represented by the formula (I) (hereinafter, referred to as “the compound of Example 1”) and aspirin were dissolved with DMSO to give concentrations of 200 mg/mL and 1000 mg/mL, respectively. […] Blood flow time from the beginning of rose bengal administration to the complete cessation of blood flow was measured to evaluate antithrombotic effects.

SMILES strings stand for the structures. Where a name gives a salt, the structure may show the parent alone.

Consider `CCOc1cc2c(c(F)c1OCC)C(=N)N(CC(=O)c1cc(N3CCOCC3)c(OC)c(C(C)(C)C)c1)C2` [Example 1, 1-(3-tert-Butyl-4-methoxy-5-morpholino-phenyl)-2-(5,6-diethoxy-7-fluoro-1-imino-1,3-dihydro-isoindol-2-yl)-ethanone; hydrobromide], for which the “blood flow time from the beginning of rose bengal administration to the complete cessation of blood flow” value (compound of Example 1 alone 30 mg/kg) is 10.77 min.
`CC(=O)Oc1ccccc1C(=O)O` [aspirin]: the “blood flow time from the beginning of rose bengal administration to the complete cessation of blood flow” value (aspirin alone 100 mg/kg) came to 11.30 min.
